Results on one compound are retold here after EP0513703A2, “Carbamate esters of eseroline having anticholinesterase activity, a process for their preparation and relative pharmaceutical compositions containing them as the active principle” (priority 1991, dated 1992).

The structures appear in SMILES notation.

The LD50 is the dose expected to kill half of the subjects tested.

A short description of series [1]: Acute toxicity, LD50 by oral route in mice (class E derivatives). It is filed as in vivo. Conditions: both sexes, Swiss, in vivo, mouse, suspension in 2 % carboxymethylcellulose, observation 7 days, read-out: LD50 per os. The text has this: The letal doses 50 (LD50) by oral route (suspension in 2 % carboxymethylcellulose) are reported herinbelow: TABLE 9
Series [2] can be described thus: Acute toxicity, LD50 by oral administration in mice (class F derivatives). Particulars: both, Swiss, mouse, in vivo, po.
A short description of series [3]: Acute toxicity, LD50 by oral route in mice (class A derivatives). In kind it is in vivo. Conditions: both sexes, Swiss, in vivo, mouse, suspension in 2 % carboxymethylcellulose, observation 7 days, read-out: LD50 per os. The text has this: The letal doses 50 (LD50) by oral route (suspension in 2 % carboxymethylcellulose) are reported herinbelow: TABLE 1
Series [4] is described as follows: Acute toxicity, LD50 by oral route in mice (class D derivatives). It is filed as in vivo. Particulars: both sexes, Swiss, in vivo, mouse, suspension in 2 % carboxymethylcellulose, observation 7 days, read-out: LD50 per os. The source says: The letal doses 50 (LD50) by oral route (suspension in 2 % carboxymethylcellulose) are reported hereinbelow: TABLE 6
The subject of series [5] is SWISS mice. The series can be described thus: Antagonism of the central stimulating (hypermotor) effect of scopolamine (class A derivatives). In kind it is in vivo. Conditions: given 30 minutes before scopolamine 1 mg/kg s.c. The text has this:
(§1) At this dose the substance provoked in all the animals a considerable increase (80-100%) of the spontaneous motility, studied according to the above mentioned method.

Another series relates to mice. The series can be described thus: Toxicity, LD50 by intraperitoneal route (class B derivatives). In kind it is in vivo. Conditions: death within 24 hours of 50% of the tested animals. The source says:
In the following table reported are LD50 values determined on mice for the listed compounds and compared with that of physostigmine administered by the same (intraperitoneal) route.

Series [6] concerns mouse. The series can be described thus: Toxicity, LD50 by intraperitoneal route (class C derivatives). It is filed as in vivo. The text has this:
In the following table reported are the LD50 values determined on mouse for the compounds listed and compared with the corresponding LD50 value for physostigmine, administered by the same (intraperitoneal) route.

Series [7] concerns mouse. Kind of series: Spontaneous motility, Dews method modified according to Carminati (class D derivatives). Conditions: mouse (Swiss). In kind it is in vivo. The source says:
(§2) The Dews method was used, modified according to Carminati (Arch. int. Pharmacodyn. et Thér 181, 68,1969).

Another series concerns acetylcholinesterase. In kind it is in vivo, Wistar male rats. Conditions: rat, in vivo.
For series [8], the system named is SWISS mice. The series can be described thus: Antagonism of the central stimulating (hypermotor) effect of scopolamine (class D derivatives). In kind it is in vivo. Particulars: given 30 minutes before scopolamine 1 mg/kg s.c.
From the text: as §1

Series [9] concerns SWISS mice. Kind of series: Antagonism of the central stimulating (hypermotor) effect of scopolamine (class E derivatives). In kind it is in vivo. Conditions: given 30 minutes before scopolamine 1 mg/kg s.c. The source says:
At this dose the substance provoked a considerable increase (80-100%) of the spontaneous motility, studied according to the above mentioned method.

Series [10] relates to mouse. Kind of series: Spontaneous motility, Dews method modified according to Carminati (class A derivatives). It is filed as in vivo. Particulars: mouse (Swiss), minimum doses.
From the text: as §2

Series [11] has as its system mouse. Kind of series: Spontaneous motility, Dews method modified according to Carminati (class E derivatives). Particulars: mouse (Strain Swiss). It is filed as in vivo.
From the text: as §2

Turning to `CNC(=O)Oc1ccc2c(c1)[C@]1(C)CCN(C)[C@@H]1N2C` [Physostigmine, physostigmine, reference compound], the median lethal dose (LD50) at 7 days is 3.78 ± 0.86 mg/kg in series [1], 4.37 ± 1.22 mg/kg in series [3] and 4.12 ± 0.89 mg/kg in [4]. For the same compound, the 50% lethal dose (LD50) in [2] is 4.5 mg/kg. Moreover, the “dose completely undoing the hypermotor effect of scopolamine” value with SWISS mice [5], in the series on SWISS mice [8] and with SWISS mice [9] was 0.4 mg/kg/os each time. Moreover, the “LD50 (mg/kg i.p.)” value in the series with mice is 0.6 mg/kg i.p. In the series with mouse [6], the “LD50 (mg/kg i.p)” value is reported as 0.6 mg/kg i.p. In addition, the “oral dose causing a significant decrease of the spontaneous motility” value with mouse [7], in the series with mouse [10] and in the series with mouse [11] was 0.6 mg/kg each time. For the same compound, in the series on acetylcholinesterase (0.4 mg/kg), the “INHIBITION % OF ACETYLCHOLINESTERASE (AchE) after 60 minutes brain” value is on record as 22.3 ± 5.12%. Also, the “INHIBITION % OF ACETYLCHOLINESTERASE (AchE) after 60 minutes serum” value with acetylcholinesterase (0.4 mg/kg) is listed as 18.41 ± 4.16%. In addition, the “INHIBITION % OF ACETYLCHOLINESTERASE (AchE) after 120 minutes brain” value with acetylcholinesterase (0.4 mg/kg) stood at 2.41 ± 1.33%. Further, the “INHIBITION % OF ACETYLCHOLINESTERASE (AchE) after 120 minutes serum” value with acetylcholinesterase (0.4 mg/kg) worked out at 3.44 ± 1.21%. For the same compound, the “ED50 (mg/kg/os) brain” value with acetylcholinesterase (po) is listed as 0.38 (0.24 - 0.60) mg/kg/os. Besides, the “ED50 (mg/kg/os) serum” value in the series with acetylcholinesterase (po) is reported as 0.37 (0.23 - 0.59) mg/kg/os.
